# A melting point compilation (Tetko et al.; mined from patent text by program, amines drawn as free bases though some values may be those of a salt)
row,Compound,melting point [°C]
1,CCC(Oc1ccccc1)C(=O)OC1CC(O)C=C2C=CC(C)C(CCC3CC(O)CC(=O)O3)C21 (mixture of isomers),120 to 122
2,CCSC(=S)SC1NC(=O)C1C(C)OC(C)=O (mixture of isomers),101 to 105
3,COCCOc1cc2ncnc(NC3=CC(=O)C(OCc4ccccc4)=CC3=O)c2cc1OC,218 to 220
4,CCCCNC(=O)c1ncc[nH]1,188 to 190
5,CC(=O)Nc1cc([C@H](O)CN[C@H](C)Cc2ccc(O)cc2)ccc1O,97 to 100
6,Cc1nc2c(c3c1[nH]c1ccc(F)cc13)C(=O)CC(C(C)C)C2 (configuration not stated),221 to 223
7,N#Cc1ccc(NN)cc1F,136
8,O=C1Nc2ccccc2C12COc1cc(F)c(F)cc12 (configuration not stated),> 200
9,COc1cccc2c1C(=O)c1c(O)c3c(c(O)c1C2=O)CC(O)(C(C)=O)CC3O (configuration not stated),217 to 221
10,O=C(Nc1ccc(C(=O)O)c(O)c1)c1ccc(-c2ccccc2)cc1,266
11,O=C(Cl)c1cnc(O)c(Cl)c1,> 250
12,CCCCCCCCCCOc1cc(OCCCCCCCCCC)cc(C(=O)O)c1,56 to 58
13,CCCC(CCC)C(=O)NCC(=O)CCCCCCCCCCCCN(N)C(=O)n1cc(F)c(=O)[nH]c1=O,116 to 118
14,CC(C)NC(=O)N1CCc2[nH]cnc2C1c1ccncc1 (configuration not stated),212
15,N#Cc1ccc(C(=O)N[C@H]2CC[C@H](CCN3CCC(c4cccc5c4CCO5)CC3)CC2)cc1,230
16,COc1cc2c(c3c1OC(C)(C)C3)C(c1cccnc1)=NC(C)(C)C2,113 to 114
17,CC(C)(C)c1cc(NC(=O)Nc2ccc(OCCN3CCOCC3)c3ccccc23)n(-c2ccccc2)n1,142 to 143
18,COc1ccc(OC)c(-c2ccc(C)cc2)c1,65 to 66
19,Cc1cc(CC#N)c(CC#N)cc1C,103 to 104
20,Cc1c(F)cc2[nH]c(=O)c(=O)[nH]c2c1[N+](=O)[O-],308 to 311
21,O=C1c2ccccc2-c2ccc(-c3nc(CCl)co3)cc21,188 to 189
22,COc1ccccc1N1CCN(CCCOc2ccc(-c3cn4ccccc4n3)cc2)CC1,149 to 150
23,CCCC(=O)Oc1cc(-c2nc3cc(F)ccc3s2)ccc1OC,125
24,CC1Cc2cc(OCc3ccccc3)c(O)cc2C(=O)C1C (configuration not stated),90 to 93
25,COc1cc(Nc2c(C#N)cnc3cc(C#CCCN4CCOCC4)c(OC)cc23)c(Cl)cc1Cl,140 to 142
26,CCCCc1nn2c(c1Cc1ccc(-c3ccccc3C(=O)O)cc1)CCCC2,162

row,Compound,melting point [°C]
1,CCCCCCCc1ccc(C(=O)CCCCC(=O)O)cc1N,100 to 102
2,COc1ccc(Br)cc1O,62 to 64
3,Cc1ccc(C(C)C)c(-n2cc(-c3ccccc3)c(C)c2Cl)c1,103
4,COC(=O)c1nc2cc(Cn3ccnc3)ccc2[nH]1,228
5,COc1ccc(-c2cc(=O)n(CC3CC3)nc2-c2ccc(OC)c(F)c2)cc1,132 to 133
6,COc1ccc2cc([C@H](C)C(=O)OCC(=O)N(C)CC(=O)NCCO[N+](=O)[O-])ccc2c1,79 to 81
7,CCn1ncc(C(=O)c2ccc(S(C)(=O)=O)c(C)c2Cl)c1O,225 to 227
8,CC(C)(C)NS(=O)(=O)c1ccc(Cl)cc1C=C1CCOC1=O,198 to 201
9,CCOC(=O)c1cc(Cl)n2ncnc2n1,92.5 to 94
10,O=c1cc(CCl)nc2ccn(-c3ccccc3)n12,194 to 196
11,CNc1nc(Nc2ccc(CNC(=O)OC(C)(C)C)cc2)ncc1[N+](=O)[O-],260
12,Cn1cnc(COc2nc3c(cc2-c2cccs2)nnn3-c2ccccc2F)n1,179 to 181
13,COc1cc2c(cc1C(=O)O)OCO2,151
14,Cc1ccsc1C(=O)NCCCSc1ccncc1,104 to 105
15,COc1cc2c(cc1OC)-c1c(C#N)sc(=O)n1CC2,205 to 207
16,Cn1c(-c2cc(O)c3c(c2)C(=O)c2cccc(O)c2C3=O)nc2ccccc21,266 to 267
17,Cc1n[nH]c([N+](=O)[O-])c1-c1ncc([N+](=O)[O-])n1C,184
18,CC(=O)c1ccc2c(c1)CC(=O)N2CC(F)(F)F,170 to 171
19,COc1ccc(C(=O)c2cnoc2C)cc1,78 to 79
20,CC(C)(C)OC(=O)c1ccc(OCCNC(=O)C2Cc3ccccc3N2S(=O)(=O)c2ccc(-c3ccc(F)cc3Cl)cc2)cc1 (configuration not stated),78
21,CC1Cc2cc3c(cc2C(c2ccc(N)cc2)=NN1C(=O)Nc1ccccc1)OCO3 (configuration not stated),118 to 120
22,CCn1cc(S(=O)(=O)NC(=O)c2cn3cc(C(F)(F)F)cc(Cl)c3n2)c(Cl)n1,184 to 185
23,CS(=O)(=O)c1cc(C(=O)NC(=N)N)c(NCc2ccco2)cc1Cl,96 to 102
24,O=C(O)c1ccc(C(=O)N2CCOCC2)nc1,181 to 183
25,CCC(O)(c1cccc(O)c1)c1nccs1 (configuration not stated),145 to 146
26,O=C1N(Cc2ccc(C(F)(F)F)o2)c2ccccc2C12COc1cc3c(cc12)OCC3 (configuration not stated),174 to 177

row,Compound,melting point [°C]
1,Cc1ccc(OC2CCN(CCc3c[nH]c4ccccc34)CC2)cc1,115 to 117
2,O=C1OCc2c(-c3noc(C4CC4)n3)ncn2-c2ccccc21,206 to 209
3,C=CCc1c(O)ccc2c1ccc(=O)n2CC=C,205 to 206
4,Cc1ncccc1CC(=NC#N)NC1CCCc2ccccc21 (configuration not stated),193 to 194
5,COc1cc2c(cc1OC)C(C)(C)Oc1c-2c(OC)cc2oc(C(=O)O)cc(=O)c12,263 to 264
6,CCOc1cc(C(CC(=O)O)N2Cc3cccc(NC(C)=O)c3C2=O)ccc1OC(F)F (configuration not stated),105 to 107
7,CCCCCC1(C(=O)Oc2ccc(C(=O)O)cc2)CC2=C(C1)C(C)(C)CCC2(C)C,156 to 158
8,COc1ccccc1CN1Cc2c(-c3ccccc3)c3cc(C)c(C)cc3c(=O)n2CC1=O,211 to 214
9,CN1CCN(C(=O)c2cc3ccnc(Cl)c3[nH]2)CC1,230 to 232
10,Nc1ccc2ccc(SCc3ccccc3)nc2n1,167
11,CCC(CC)(CO)CCCCS(N)(=O)=O,64 to 65
12,CCCCCCCCCCCCNC(=O)N1c2ccccc2C(C)CC1(C)C (configuration not stated),48 to 50
13,CCc1nc2c(N)nc3ccccc3c2n1CCCCS(C)(=O)=O,182 to 185
14,c1ccc(-c2cc3ncnc(Nc4ccc(NCc5c[nH]c6ccccc56)cc4)c3s2)cc1,259 to 261
15,CCOC(=O)CC(=O)Nc1c(C(=O)OC)cccc1C(F)(F)F,87
16,COc1ccc(C(=O)Cc2cc(OC)ccc2OC)c(Br)c1,76 to 79
17,CC(C)CN1C(=O)[C@@H](CC(=O)O)O[C@H](c2ccccc2OCc2ccccc2)c2cc(Cl)ccc21 (relative stereo),194 to 197
18,CS(=O)(=O)N(CCBr)N(S(C)(=O)=O)S(C)(=O)=O,147 to 148
19,Clc1ccc(CNc2cncnc2)cc1,121
20,O=C(Nc1ccc2oc(=O)[nH]c2c1)C(=O)N1CCC(Cc2ccccc2)CC1,187 to 190
21,CCOC(=O)CCc1nc(-c2cccc(OC)c2)nc2ccccc12,70
22,COC(=O)CCC(=O)Oc1c(C)n(Cc2ccccc2)c2c(OCc3ccccc3)nncc12,189 to 190
23,O=C(C1=CNCCS1)c1ccc(F)cc1,212 to 214
24,Cc1c(C)c2c(c(C)c1N)C(=O)C(C)(C)O2,92 to 93
25,COc1ccc(N)cc1NC(C)=O,83
26,O=C(Cn1c(-c2ccccc2)ccc(NC(=O)OCc2ccc(C(=O)O)cc2)c1=O)NC(Cc1ccccc1)C(=O)C(F)(F)F (configuration not stated),214 to 216

row,Compound,melting point [°C]
1,O=C(O)COc1cccc2c1CC(S(=O)(=O)Cc1ccccc1)c1sc(-c3cccc(F)c3)nc1-2 (configuration not stated),215 to 217
2,Cc1ccc(S(=O)(=O)NC(CC(N)=O)C(=O)O)cc1 (configuration not stated),198 to 200
3,CCOc1nn(C(=O)NS(=O)(=O)c2c(C)csc2C)c(=O)n1C,158
4,COc1ccc(C2(C#Cc3cccc(C(=O)O)c3)CCCC(=O)C2)cc1OC1CCCC1 (configuration not stated),71 to 73
5,O=C(O)C1=Cc2cc(C3CCCCC3)ccc2CC1,179 to 180
6,CCN(C/C=C/C#CC(C)(C)C)Cc1cccc(N2C(=O)c3ccccc3C2=O)c1,65 to 66
7,O=C(O)c1cc(-c2ccc(Cl)cc2)nc(-c2ccc(Cl)c(Cl)c2)c1,303 to 304
8,N#Cc1cnn2c1N(C(=O)CCl)CC=C2c1cccc(Cl)c1,196 to 198
9,CN1C(=O)N2C(=NC1(C)C)N(C(=O)Nc1ccc(Cl)c(Cl)c1)c1ccccc12,198 to 200
10,CC(C)(C)C(=O)OC(COc1cccc2[nH]nnc12)CN1CCC(COc2ccccc2)CC1 (configuration not stated),131 to 133
11,COc1cccc(Cc2nc3c(N)ncnc3[nH]2)c1,163 to 165
12,COC(=O)CCCCCCNC(=O)c1cn2c3c(cccc13)CCC2,66 to 67
13,O=C1c2ccccc2C(=O)N1Cc1cc(Cl)ccc1OCc1cccnc1,173 to 175
14,COC(=O)c1ccc(OC)cc1NC(C)=O,123 to 126
15,CC1(c2ccc(F)cc2)NOCC1CN(O)C(N)=O (configuration not stated),135 to 137
16,C#CCOc1ccc(C2=NC3=CCNC(=O)C3=N2)c(OC)c1,178 to 180
17,CCc1cc(Cc2cc(CC)c(N)c(C)c2Cl)c(Cl)c(C)c1N,115 to 117
18,CCNC(=O)c1c([Si](C)(C)C)csc1Cl,46 to 48
19,Cc1cc2c(s1)CCCc1cc(=O)n(-c3ccc(Cl)cc3)nc1-2,150 to 151
20,CCOC(=O)C(=Cc1ccc(-c2cccc(NC)c2)cc1)OCC,52
21,O=C(CCl)NCc1cc2c(c(Br)c1O)CCCC2=O,201 to 203
22,Cc1cn(C(C)C(N)=O)nc1-c1ccccc1 (configuration not stated),99 to 101
23,CCCCOc1cc(C(CC(=O)OC)N2C(=O)c3ccccc3C2=O)ccc1OC (configuration not stated),54 to 55
24,CC1(C)NC(=O)N(c2ccc([N+](=O)[O-])c(C(F)(F)F)c2)C1=N,168
